Molecular target: Phosphatidylinositol 4,5-bisphosphate 3-kinase catalytic subunit gamma isoform (Homo sapiens, UniProt P48736)
Test: Determination of PI3K Activity
Settings: pH 7.4; 22 °C

Phosphatidylinositol 4,5-bisphosphate 3-kinase catalytic subunit gamma isoform, sequence (P48736 whole entry, canonical isoform): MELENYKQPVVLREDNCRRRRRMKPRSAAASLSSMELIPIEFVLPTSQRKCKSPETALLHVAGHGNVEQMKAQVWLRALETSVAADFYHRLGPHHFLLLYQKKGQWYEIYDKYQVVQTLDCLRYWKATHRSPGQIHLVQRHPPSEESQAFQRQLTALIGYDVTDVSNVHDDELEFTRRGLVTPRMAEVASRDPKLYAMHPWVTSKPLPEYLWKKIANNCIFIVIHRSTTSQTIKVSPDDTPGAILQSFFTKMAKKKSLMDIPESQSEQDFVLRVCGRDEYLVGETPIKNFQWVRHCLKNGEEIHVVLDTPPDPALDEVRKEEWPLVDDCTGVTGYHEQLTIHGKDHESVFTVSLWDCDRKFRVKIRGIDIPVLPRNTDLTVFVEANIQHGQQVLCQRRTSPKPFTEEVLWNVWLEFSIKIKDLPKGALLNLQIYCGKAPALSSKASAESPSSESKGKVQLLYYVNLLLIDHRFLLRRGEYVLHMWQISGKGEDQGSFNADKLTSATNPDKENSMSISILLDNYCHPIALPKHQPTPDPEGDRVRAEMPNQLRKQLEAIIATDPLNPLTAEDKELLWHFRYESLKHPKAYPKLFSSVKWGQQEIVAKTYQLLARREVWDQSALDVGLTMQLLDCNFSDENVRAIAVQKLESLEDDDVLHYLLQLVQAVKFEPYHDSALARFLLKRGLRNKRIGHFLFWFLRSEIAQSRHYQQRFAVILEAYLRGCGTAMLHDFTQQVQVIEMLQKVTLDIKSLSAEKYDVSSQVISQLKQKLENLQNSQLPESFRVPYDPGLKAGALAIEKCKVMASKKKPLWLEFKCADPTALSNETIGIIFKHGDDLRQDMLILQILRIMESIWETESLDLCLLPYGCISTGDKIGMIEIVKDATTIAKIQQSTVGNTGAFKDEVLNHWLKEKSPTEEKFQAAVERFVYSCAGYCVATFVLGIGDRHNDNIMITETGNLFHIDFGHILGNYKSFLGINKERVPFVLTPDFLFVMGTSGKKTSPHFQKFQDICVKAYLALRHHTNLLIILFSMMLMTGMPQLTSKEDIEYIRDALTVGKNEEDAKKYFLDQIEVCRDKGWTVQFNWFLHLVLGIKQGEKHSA

IC50: 12.6 µM
Compound: COc1cccc(-c2nc3nc(N)nc(N)c3nc2-c2cccc(OC)c2)c1 [6,7-bis(3-methoxyphenyl)pteridine-2,4-diamine]
